Experimental data: patent publication US20050054006A1, “Combinatorial fluorescent library based on the styryl scaffold” (New York University, priority 2003, published 2005)

How the values were obtained:
[1] = Fluorescence excitation/emission of the styryl dye library compounds; type: physicochemical
[2] = test system: UACC-62 human melanoma cells; experiment: Organelle localization in live cells by fluorescence microscopy; settings: live UACC-62 cells, fluorescence microscope λex=405, 490, 570 nm; λem>510 nm

SMILES | EM(nm) ([1]; EX/EM peak no. 1) | EX(nm) ([1]; EX/EM peak no. 1) | LOCALIZATION [2] | EM(nm) ([1]; EX/EM peak no. 2) | EX(nm) ([1]; EX/EM peak no. 2)
C[n+]1ccc(C=CCc2ccccc2)cc1.[I-] [Compound A1] | 490 nm | 390 nm | CYTO | – | –
C[n+]1ccc(C=Cc2ccc(OCc3ccccc3)c(OCc3ccccc3)c2)cc1.[I-] [Compound A12] | 540 nm | 330-460 nm | MITO | – | –
COc1ccc(C=Cc2cc[n+](C)cc2)c2ccccc12.[I-] [Compound A14] | 550 nm | 430(broad) nm | MITO | – | –
CN(C)c1ccc(C=Cc2cc[n+](C)cc2)cc1.[I-] [Compound A19] | 600 nm | 460 nm | MITO and NUCLEOLI | – | –
COc1ccc2ccccc2c1C=Cc1cc[n+](C)cc1.[I-] [Compound A23] | 540 nm | 450 (broad) nm | CYTO and MITO | – | –
C[n+]1ccc(C=Cc2c[nH]c3ccccc23)cc1.[I-] [Compound A24] | 530 nm | 400) nm | CYTO | – | –
CN(C)c1ccc(C=Cc2cc[n+](C)cc2)c2ccccc12.[I-] [Compound A27] | 640 nm | 450 nm | CYTO | – | –
C[n+]1ccc(C=Cc2cccc3ccccc23)cc1.[I-] [Compound A32] | 510 nm | 400 nm | MITO and CYTO and VESICLE | – | –
COc1ccc(/C=C/c2cc[n+](C34CC5CC(CC(C5)C3)C4)cc2)cc1OC.[Br-] [Compound B11] | 540 nm | 340-440 nm | MITO | – | –
Oc1ccc(C=Cc2cc[n+](C34CC5CC(CC(C5)C3)C4)cc2)cc1.[Br-] [Compound B16] | 590 nm | 400 nm | MITO | – | –
O=[N+]([O-])c1ccc(C=Cc2cc[n+](C34CC5CC(CC(C5)C3)C4)cc2)cc1.[Br-] [Compound B22] | 600 nm | 410-420 nm | MITO | – | –
O=Cc1ccccc1C=Cc1cc[n+](C23CC4CC(CC(C4)C2)C3)cc1.[Br-] [Compound B25] | 570 nm | 430 nm | CYTO | – | –
Fc1c(F)c(F)c(C=Cc2cc[n+](C34CC5CC(CC(C5)C3)C4)cc2)c(F)c1F.[Br-] [Compound B31] | 580 nm | 430 nm | MITO | – | –
C(=Cc1ccc2ccccc2c1)c1cc[n+](C23CC4CC(CC(C4)C2)C3)cc1.[Br-] [Compound B33] | 500 nm | 350-420 nm | MITO and CYTO and VESICLE | 580 nm | 360-400 nm
O=[N+]([O-])c1ccccc1C=CC=Cc1cc[n+](C23CC4CC(CC(C4)C2)C3)cc1.[Br-] [Compound B36] | 520 nm | 420 nm | MITO | – | –
CN(C)c1ccc(C=CC=Cc2cc[n+](C34CC5CC(CC(C5)C3)C4)cc2)cc1.[Br-] [Compound B37] | 700 nm | – | MITO | – | –
COc1cc(OC)c(OC)cc1C=Cc1cc[n+](C23CC4CC(CC(C4)C2)C3)cc1.[Br-] [Compound B38] | 580 nm | 400-480 nm | NUCLEI and MITO | – | –
C[n+]1ccccc1C=Cc1ccc(OCc2ccccc2)c(OCc2ccccc2)c1.[I-] [Compound C12] | 520 nm | 390 (broad) nm | MITO? and ER? | – | –
COc1cc(OC)c(OC)cc1C=Cc1cccc(C)[n+]1C.[I-] [Compound L38] | 570 nm | 420 nm | – | – | –
Cc1cccc(C=Cc2ccc3c(c2)OCO3)[n+]1C.[I-] [Compound L39] | 510 nm | 390 nm | – | – | –
Cc1cccc(/C=C/c2ccccn2)[n+]1C.[I-] [Compound L40] | 620 nm | 380 nm | – | – | –
